Results on 14 molecules are retold here after PubChem BioAssay AID248 (DTP/NCI, 2004).

Where “and” joins values, the source holds several entries; their conditions need not be identical. Equal values may be shown once. Toxic doses and inconclusive results are not listed.

The experiment concerns L1210 leukemia ip in BDF1 mice, survival T/C. Put plainly: NCI In Vivo Anticancer Drug Screen. Data for tumor model L1210 Leukemia (intraperitoneal) in B6D2F1 (BDF1) mice. The note with it: endpoint: mean survival time, higher = longer survival. Summed up: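 Tumor cells were implanted, animals were treated, and survival was followed. The result divides the treated measurement by the vehicle-control measurement.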

[1] abbreviates: dose: 100.0 mg/kg/injection, schedule: Q01DX001 (ip), vehicle: saline.
The mark [2] stands for this setting: dose: 100.0 mg/kg/injection, schedule: Q01DX009 (ip), vehicle: saline with Tween-80.
Where [3] appears, read: dose: 200.0 mg/kg/injection, schedule: Q01DX009 (ip), vehicle: saline with Tween-80.
The mark [4] stands for this setting: dose: 50.0 mg/kg/injection, schedule: Q01DX009 (ip), vehicle: saline with Tween-80.
The mark [5] stands for this setting: dose: 100.0 mg/kg/injection, schedule: Q04DX003 (ip), vehicle: saline with Tween-80.
[6] abbreviates: dose: 200.0 mg/kg/injection, schedule: Q04DX003 (ip), vehicle: saline with Tween-80.
[7] abbreviates: dose: 400.0 mg/kg/injection, schedule: Q04DX003 (ip), vehicle: saline with Tween-80.
Where [8] appears, read: dose: 200.0 mg/kg/injection, schedule: Q01DX001 (ip), vehicle: saline.
Where [9] appears, read: dose: 400.0 mg/kg/injection, schedule: Q01DX001 (ip), vehicle: saline.
Where [10] appears, read: dose: 100.0 mg/kg/injection, schedule: Q04DX003 (ip), vehicle: saline.
Where [11] appears, read: dose: 200.0 mg/kg/injection, schedule: Q04DX003 (ip), vehicle: saline.
Where [12] appears, read: dose: 400.0 mg/kg/injection, schedule: Q04DX003 (ip), vehicle: saline.

As for `CN=C(N)c1ccc(NC(=O)c2ccc(C(=O)Nc3ccc(C(N)=NC)cc3)cc2)cc1`, the T/C reads like this: (dose: 1.9 mg/kg/injection, schedule: Q01DX Z (ip), vehicle: methylcellulose (MC)) 102 % of control; (dose: 2.0 mg/kg/injection, schedule: Q01DX006 (iv), vehicle: saline) 104 % of control; (dose: 2.0 mg/kg/injection, schedule: Q01DX Z (sc), vehicle: saline) 101 % of control; (dose: 2.0 mg/kg/injection, schedule: Q02DX004 (im), vehicle: saline) 103 % of control; (dose: 3.75 mg/kg/injection, schedule: Q01DX Z (ip), vehicle: methylcellulose (MC)) 124 % of control; (dose: 4.0 mg/kg/injection, schedule: Q01DX006 (iv), vehicle: saline) 103 % of control. Besides, the T/C is 97 % of control (dose: 4.0 mg/kg/injection, schedule: Q01DX Z (sc), vehicle: saline); 103 % of control (dose: 4.0 mg/kg/injection, schedule: Q02DX004 (im), vehicle: saline); 177 % of control (dose: 5.5 mg/kg/injection, schedule: Q01DX Z (ip), vehicle: methylcellulose (MC)); 106 % of control (dose: 8.0 mg/kg/injection, schedule: Q01DX006 (iv), vehicle: saline); 106 % of control (dose: 8.0 mg/kg/injection, schedule: Q01DX010 (oral), vehicle: saline); 94 % of control (dose: 8.0 mg/kg/injection, schedule: Q01DX Z (sc), vehicle: saline). The T/C (dose: 8.0 mg/kg/injection, schedule: Q02DX004 (im), vehicle: saline) was 108 % of control; the T/C (dose: 15.0 mg/kg/injection, schedule: Q01DX Z (ip), vehicle: methylcellulose (MC)) is 150 % of control and 156 % of control; the T/C (dose: 16.0 mg/kg/injection, schedule: Q01DX010 (oral), vehicle: saline) was 97 % of control; the T/C (dose: 16.0 mg/kg/injection, schedule: Q01DX Z (sc), vehicle: saline) is 98 % of control; the T/C (dose: 16.0 mg/kg/injection, schedule: Q02DX004 (im), vehicle: saline) was 108 % of control; the T/C (dose: 30.0 mg/kg/injection, schedule: Q01DX Z (ip), vehicle: methylcellulose (MC)) was 171 % of control and 173 % of control. In addition, the T/C (dose: 32.0 mg/kg/injection, schedule: Q01DX010 (oral), vehicle: saline) was 97 % of control; the T/C (dose: 42.4 mg/kg/injection, schedule: Q01DX007 (oral), vehicle: carboxymethylcellulose (CMC)) was 100 % of control; the T/C (dose: 60.0 mg/kg/injection, schedule: Q01DX Z (ip), vehicle: methylcellulose (MC)) was 174 % of control; the T/C (dose: 64.0 mg/kg/injection, schedule: Q01DX007 (oral), vehicle: carboxymethylcellulose (CMC)) is 105 % of control; the T/C (dose: 64.0 mg/kg/injection, schedule: Q01DX010 (oral), vehicle: saline) is 103 % of control; the T/C (dose: 96.0 mg/kg/injection, schedule: Q01DX007 (oral), vehicle: carboxymethylcellulose (CMC)) was 103 % of control. For the same molecule, the T/C (dose: 120.0 mg/kg/injection, schedule: Q01DX Z (ip), vehicle: methylcellulose (MC)) was 108 % of control; the T/C (dose: 144.0 mg/kg/injection, schedule: Q01DX007 (oral), vehicle: carboxymethylcellulose (CMC)) was 108 % of control; the T/C (dose: 150.0 mg/kg/injection, schedule: Q01DX Z (oral), vehicle: saline) is 100 % of control; the T/C (dose: 300.0 mg/kg/injection, schedule: Q01DX Z (oral), vehicle: saline) was 93 % of control; the T/C (dose: 600.0 mg/kg/injection, schedule: Q01DX Z (oral), vehicle: saline) was 115 % of control.
Consider `CCOC(=O)/C(C(C)=O)=C(/O)c1ccc(OC(F)(F)C(F)Cl)cc1OC(F)(F)C(F)Cl.CCOC(=O)/C(C(C)=O)=C(/O)c1ccc(OC(F)(F)C(F)Cl)cc1OC(F)(F)C(F)Cl.[Cu]` (stereo unspecified), for which the T/C is 88 % of control (dose: 100.0 mg/kg/injection, schedule: Q01DX009 (ip), vehicle: Klucel (hydroxypropylcellulose) (HPC)); 100 % of control (dose: 100.0 mg/kg/injection, schedule: Q04DX003 (ip), vehicle: Klucel (hydroxypropylcellulose) (HPC)); 94 % of control (dose: 200.0 mg/kg/injection, schedule: Q01DX009 (ip), vehicle: Klucel (hydroxypropylcellulose) (HPC)); 101 % of control (dose: 200.0 mg/kg/injection, schedule: Q04DX003 (ip), vehicle: Klucel (hydroxypropylcellulose) (HPC)); 101 % of control (dose: 400.0 mg/kg/injection, schedule: Q04DX003 (ip), vehicle: Klucel (hydroxypropylcellulose) (HPC)).
Take `CSc1ccc(C(=O)Nc2c(N)ncnc2N)cc1`: the T/C (dose: 25.0 mg/kg/injection, schedule: Q01DX001 (ip), vehicle: saline) is 97 % of control; the T/C (dose: 50.0 mg/kg/injection, schedule: Q01DX001 (ip), vehicle: saline) is 87 % of control; the T/C (dose: 100.0 mg/kg/injection, schedule: Q01DX001 (ip), vehicle: saline with Tween-80) is 100 % of control; the T/C under setting [1] is 88 % of control.
For `CCCCCCCCOc1ccc(C(=O)O)cc1`, the T/C is 96 % of control under setting [2]; 96 % of control under setting [3]; 92 % of control (dose: 400.0 mg/kg/injection, schedule: Q01DX009 (ip), vehicle: saline with Tween-80).
For the molecule `Nc1nc(NCCCc2ccccc2)c(N)c(=O)[nH]1`, the T/C was 94 % of control (dose: 25.0 mg/kg/injection, schedule: Q01DX009 (ip), vehicle: saline with Tween-80); 92 % of control under setting [4]; 92 % of control and 97 % of control under setting [2].
As to `CCOC(=O)Nc1cc(NC(=O)OCC)cc([N+](=O)[O-])c1`, the T/C was 110 % of control under setting [5], 102 % of control under setting [6] and 89 % of control under setting [7].
As to `O=C1Nc2cccc3cc(O)cc1c23`, the T/C runs as follows: under setting [1], 105 % of control; under setting [8], 87 % of control; under setting [9], 92 % of control.
Take `CCC(=O)c1ccc(OCC(CN2CCN(c3ccccc3OC)CC2)OC(C)=O)cc1` (stereo unspecified): the T/C runs as follows: under setting [5], 97 % of control; under setting [6], 105 % of control; under setting [7], 100 % of control.
Turning to `O=C(NNc1ccccc1)NNc1ccccc1` (tested in a mixture with another compound), the T/C is 95 % of control under setting [4], 95 % of control under setting [2] and 99 % of control under setting [3].
On to `O=[N+]([O-])c1ccc(OC(=S)Cl)cc1`, for which the T/C (dose: 6.25 mg/kg/injection, schedule: Q04DX002 (ip), vehicle: saline with Tween-80) is 99 % of control; the T/C (dose: 12.5 mg/kg/injection, schedule: Q04DX002 (ip), vehicle: saline with Tween-80) was 101 % of control; the T/C (dose: 25.0 mg/kg/injection, schedule: Q04DX002 (ip), vehicle: saline with Tween-80) is 96 % of control; the T/C under setting [5] was 103 % of control.
With `CN(CC(C)(C)C=O)C(=O)c1ccccc1`, the T/C under setting [10] is 96 % of control, the T/C under setting [11] was 103 % of control and the T/C under setting [12] was 100 % of control.
As to `Clc1ccccc1-c1nc2ccccc2cc1Cl`, the T/C reads like this: under setting [1], 92 % of control; under setting [8], 88 % of control; under setting [9], 94 % of control.
As for `CC(C)CCCC(C)C1CCC2C3CC=C4CC(OC(=O)C(Cl)(Cl)Cl)CCC4(C)C3CCC12C` (stereo unspecified), the T/C was 94 % of control (dose: 40.0 mg/kg/injection, schedule: Q01DX009 (sc), vehicle: steriod suspending solution); 98 % of control (dose: 50.0 mg/kg/injection, schedule: Q04DX003 (sc), vehicle: steriod suspending solution); 101 % of control (dose: 75.0 mg/kg/injection, schedule: Q01DX009 (sc), vehicle: steriod suspending solution); 101 % of control (dose: 100.0 mg/kg/injection, schedule: Q04DX003 (sc), vehicle: steriod suspending solution); 95 % of control (dose: 150.0 mg/kg/injection, schedule: Q01DX009 (sc), vehicle: steriod suspending solution); 108 % of control (dose: 200.0 mg/kg/injection, schedule: Q04DX003 (sc), vehicle: steriod suspending solution).
Turning to `Nc1ncnc2c1ncn2C1CC(O)C(CO)O1` (stereo unspecified), the T/C is, setting by setting: under setting [5], 101 % of control; under setting [10], 98 % of control; under setting [6], 98 % of control; under setting [11], 104 % of control; under setting [7], 98 % of control; under setting [12], 93 % of control. In addition, the T/C reads like this: (dose: 440.0 mg/kg/injection, schedule: Q03HX024 (ip), vehicle: saline with Tween-80) 105 % of control; (dose: 660.0 mg/kg/injection, schedule: Q03HX024 (ip), vehicle: saline with Tween-80) 110 % of control; (dose: 1000.0 mg/kg/injection, schedule: Q03HX024 (ip), vehicle: saline with Tween-80) 104 % of control.
